Reference: ChEMBL document CHEMBL1909046, “DrugMatrix in vitro pharmacology data”

Columns and labels:
[1] = DRUGMATRIX: Glutamate, AMPA radioligand binding (ligand: [3H] AMPA); type: cell membranes, Rattus norvegicus, Wistar, Cerebral cortex, Membrane; details: Not Active = under 50% inhibition at 10 µM
[2] = DRUGMATRIX: beta-Lactamase enzyme inhibition (substrate: Nitrocefin); set-up: species or system Bacillus cereus; details: Not Active = under 50% inhibition at 10 µM
[3] = molecular target: T1, C-C chemokine receptor type 4 (Homo sapiens, UniProt P51679); type: cell membranes, Membrane; details: chem-1; note: in other assays of this panel Not Active means under 50% inhibition at 10 µM
T1 sequence (P51679 whole entry): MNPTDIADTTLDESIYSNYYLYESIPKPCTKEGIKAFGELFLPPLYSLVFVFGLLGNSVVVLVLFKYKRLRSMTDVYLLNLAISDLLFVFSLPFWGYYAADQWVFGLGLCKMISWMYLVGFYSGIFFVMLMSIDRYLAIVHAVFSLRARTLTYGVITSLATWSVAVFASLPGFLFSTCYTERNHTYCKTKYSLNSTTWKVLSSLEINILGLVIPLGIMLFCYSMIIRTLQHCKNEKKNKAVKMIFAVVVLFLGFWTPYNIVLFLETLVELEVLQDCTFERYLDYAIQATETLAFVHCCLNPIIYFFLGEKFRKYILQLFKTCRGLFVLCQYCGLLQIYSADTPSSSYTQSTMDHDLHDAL

[4] = molecular target: Mitogen-activated protein kinase 1 (Homo sapiens, UniProt P28482); experiment: DRUGMATRIX: Protein Serine/Threonine Kinase, ERK2 enzyme inhibition (substrate: Myelin Basic Protein); set-up: species or system Escherichia coli; details: Not Active = under 50% inhibition at 10 µM
Nitric oxide synthase 1 = Nitric oxide synthase 1 (Rattus norvegicus, UniProt P29476); type: tissue-based, Cerebellum; note: in other assays of this panel Not Active means under 50% inhibition at 10 µM
[5] = molecular target: T2, Nitric oxide synthase, inducible (Mus musculus, UniProt P29477); set-up: species or system Escherichia coli;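 note: inhibition of iNOS enzyme activity measured with L-arginine as substrate; in other assays of this panel Not Active means under 50% inhibition at 10 µM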
T2 sequence (P29477 whole entry): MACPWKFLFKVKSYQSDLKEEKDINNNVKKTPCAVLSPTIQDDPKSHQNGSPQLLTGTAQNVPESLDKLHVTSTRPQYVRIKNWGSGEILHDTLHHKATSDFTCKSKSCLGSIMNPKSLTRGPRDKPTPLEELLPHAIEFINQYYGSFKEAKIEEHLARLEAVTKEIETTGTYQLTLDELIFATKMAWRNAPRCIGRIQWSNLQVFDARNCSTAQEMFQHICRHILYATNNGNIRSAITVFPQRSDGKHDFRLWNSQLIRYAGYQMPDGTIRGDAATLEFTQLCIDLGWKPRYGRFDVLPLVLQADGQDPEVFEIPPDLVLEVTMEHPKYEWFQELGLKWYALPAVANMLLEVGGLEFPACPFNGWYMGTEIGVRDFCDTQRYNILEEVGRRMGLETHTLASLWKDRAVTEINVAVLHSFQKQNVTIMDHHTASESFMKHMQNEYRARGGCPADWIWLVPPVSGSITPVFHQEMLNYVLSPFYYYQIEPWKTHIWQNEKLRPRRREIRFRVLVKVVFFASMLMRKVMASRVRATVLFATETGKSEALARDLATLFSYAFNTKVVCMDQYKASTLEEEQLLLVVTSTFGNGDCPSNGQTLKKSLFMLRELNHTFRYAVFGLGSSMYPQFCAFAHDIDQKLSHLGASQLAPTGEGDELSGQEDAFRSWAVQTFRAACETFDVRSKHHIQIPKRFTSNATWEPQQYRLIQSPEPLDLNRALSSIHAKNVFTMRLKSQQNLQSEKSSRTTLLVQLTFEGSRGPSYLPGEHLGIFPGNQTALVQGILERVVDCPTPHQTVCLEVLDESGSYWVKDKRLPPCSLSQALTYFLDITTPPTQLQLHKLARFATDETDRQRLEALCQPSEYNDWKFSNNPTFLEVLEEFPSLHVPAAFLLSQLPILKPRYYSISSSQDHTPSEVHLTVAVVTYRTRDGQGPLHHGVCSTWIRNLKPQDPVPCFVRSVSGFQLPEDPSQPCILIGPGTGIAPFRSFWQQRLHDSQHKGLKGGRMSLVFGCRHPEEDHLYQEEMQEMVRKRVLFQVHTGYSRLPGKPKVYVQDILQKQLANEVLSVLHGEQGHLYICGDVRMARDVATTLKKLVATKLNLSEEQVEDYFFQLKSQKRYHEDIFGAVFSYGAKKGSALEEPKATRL

[6] = DRUGMATRIX: Atrial Natriuretic Factor (ANF) radioligand binding (ligand: [125I] ANF (rat)); type: cell membranes, Cavia porcellus, Dunkin-Hartley, Adrenal gland, Membrane; details: Not Active = under 50% inhibition at 10 µM
[7] = DRUGMATRIX: Phosphodiesterase PDE4 enzyme inhibition (substrate: [3H]cAMP + cAMP); details: u-937; Not Active = under 50% inhibition at 10 µM
[8] = molecular target: Sigma non-opioid intracellular receptor 1 (Homo sapiens, UniProt Q99720); experiment: DRUGMATRIX: Sigma1 radioligand binding (ligand: [3H] Haloperidol); type: cell membranes, Jurkat, Membrane; details: jurkat; Not Active = under 50% inhibition at 10 µM
[9] = molecular target: T3, 5-hydroxytryptamine receptor 2C (Homo sapiens, UniProt P28335); experiment: DRUGMATRIX: Serotonin (5-Hydroxytryptamine) 5-HT2C radioligand binding (ligand: [3H] Mesulergine); type: cell membranes, CHO-K1, Membrane; details: cho-k1; Not Active = under 50% inhibition at 10 µM
T3 sequence (P28335 whole entry): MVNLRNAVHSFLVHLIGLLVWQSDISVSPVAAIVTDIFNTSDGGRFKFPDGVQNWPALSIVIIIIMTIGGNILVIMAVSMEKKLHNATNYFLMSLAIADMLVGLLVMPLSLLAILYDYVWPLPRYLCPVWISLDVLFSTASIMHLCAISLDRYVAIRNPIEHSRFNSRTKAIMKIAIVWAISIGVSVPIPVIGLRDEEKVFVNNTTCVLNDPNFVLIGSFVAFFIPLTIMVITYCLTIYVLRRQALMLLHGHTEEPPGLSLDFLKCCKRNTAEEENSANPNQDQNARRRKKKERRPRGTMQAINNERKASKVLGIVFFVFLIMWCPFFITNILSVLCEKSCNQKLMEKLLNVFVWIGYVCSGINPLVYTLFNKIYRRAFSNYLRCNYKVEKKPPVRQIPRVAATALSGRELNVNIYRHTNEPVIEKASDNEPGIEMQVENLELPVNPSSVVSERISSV

Melanocortin receptor 3 = Melanocortin receptor 3 (Homo sapiens, UniProt P41968); type: cell membranes, Membrane; details: hek293; note: in other assays of this panel Not Active means under 50% inhibition at 10 µM
Sequence of Melanocortin receptor 3 (P41968 whole entry): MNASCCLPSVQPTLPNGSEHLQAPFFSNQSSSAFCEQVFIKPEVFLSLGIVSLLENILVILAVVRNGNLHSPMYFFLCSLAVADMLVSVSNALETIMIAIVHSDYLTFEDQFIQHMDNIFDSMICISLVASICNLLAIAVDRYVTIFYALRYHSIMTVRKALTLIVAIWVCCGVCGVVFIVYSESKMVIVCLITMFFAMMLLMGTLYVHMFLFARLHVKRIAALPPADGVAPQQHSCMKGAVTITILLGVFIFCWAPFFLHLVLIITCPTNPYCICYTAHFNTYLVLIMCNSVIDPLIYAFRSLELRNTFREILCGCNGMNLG

Sequence of Nitric oxide synthase 1 (P29476 whole entry): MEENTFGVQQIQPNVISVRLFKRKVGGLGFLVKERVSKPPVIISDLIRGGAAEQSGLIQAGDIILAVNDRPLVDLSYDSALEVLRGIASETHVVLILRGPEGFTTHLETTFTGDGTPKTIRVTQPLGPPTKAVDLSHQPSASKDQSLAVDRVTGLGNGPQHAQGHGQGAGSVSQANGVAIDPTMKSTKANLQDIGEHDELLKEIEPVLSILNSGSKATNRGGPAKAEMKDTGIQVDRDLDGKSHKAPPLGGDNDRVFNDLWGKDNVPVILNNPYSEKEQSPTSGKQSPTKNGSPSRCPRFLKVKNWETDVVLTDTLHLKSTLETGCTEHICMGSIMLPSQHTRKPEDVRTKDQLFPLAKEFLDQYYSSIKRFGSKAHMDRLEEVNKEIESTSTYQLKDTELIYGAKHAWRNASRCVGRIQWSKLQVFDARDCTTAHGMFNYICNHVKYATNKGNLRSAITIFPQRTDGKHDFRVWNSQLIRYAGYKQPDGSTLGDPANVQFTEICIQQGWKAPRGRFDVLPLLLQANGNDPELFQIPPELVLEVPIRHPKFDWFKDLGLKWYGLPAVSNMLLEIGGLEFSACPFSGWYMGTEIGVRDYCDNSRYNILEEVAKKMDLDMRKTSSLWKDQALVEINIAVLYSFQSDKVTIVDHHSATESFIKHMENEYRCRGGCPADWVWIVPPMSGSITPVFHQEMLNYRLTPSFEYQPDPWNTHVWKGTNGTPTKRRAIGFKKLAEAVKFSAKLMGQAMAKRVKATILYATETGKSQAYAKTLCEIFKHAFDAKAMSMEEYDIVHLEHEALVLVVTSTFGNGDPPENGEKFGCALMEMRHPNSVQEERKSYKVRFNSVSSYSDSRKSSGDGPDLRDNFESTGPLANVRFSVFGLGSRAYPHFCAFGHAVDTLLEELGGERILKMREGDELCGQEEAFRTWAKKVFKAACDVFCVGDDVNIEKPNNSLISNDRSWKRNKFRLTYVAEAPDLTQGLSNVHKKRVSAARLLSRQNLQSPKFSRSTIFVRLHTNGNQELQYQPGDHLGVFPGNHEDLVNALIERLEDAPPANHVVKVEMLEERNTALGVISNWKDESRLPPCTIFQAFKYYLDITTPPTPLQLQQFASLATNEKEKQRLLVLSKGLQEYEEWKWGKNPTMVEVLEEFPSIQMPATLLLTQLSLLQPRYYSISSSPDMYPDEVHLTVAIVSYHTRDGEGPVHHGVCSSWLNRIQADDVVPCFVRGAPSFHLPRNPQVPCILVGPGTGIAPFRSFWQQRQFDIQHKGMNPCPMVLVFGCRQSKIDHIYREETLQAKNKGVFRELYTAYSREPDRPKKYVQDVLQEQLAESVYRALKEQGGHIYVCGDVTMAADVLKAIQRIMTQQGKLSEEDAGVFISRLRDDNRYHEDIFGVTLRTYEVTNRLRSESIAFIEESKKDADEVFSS
Sequence of Sigma non-opioid intracellular receptor 1 (Q99720 whole entry): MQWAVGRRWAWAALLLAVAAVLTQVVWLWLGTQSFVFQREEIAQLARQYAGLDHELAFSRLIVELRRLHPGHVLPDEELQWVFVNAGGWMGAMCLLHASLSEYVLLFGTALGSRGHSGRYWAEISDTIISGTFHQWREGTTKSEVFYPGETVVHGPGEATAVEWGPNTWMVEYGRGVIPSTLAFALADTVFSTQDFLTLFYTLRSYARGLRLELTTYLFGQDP
Sequence of Mitogen-activated protein kinase 1 (P28482 whole entry): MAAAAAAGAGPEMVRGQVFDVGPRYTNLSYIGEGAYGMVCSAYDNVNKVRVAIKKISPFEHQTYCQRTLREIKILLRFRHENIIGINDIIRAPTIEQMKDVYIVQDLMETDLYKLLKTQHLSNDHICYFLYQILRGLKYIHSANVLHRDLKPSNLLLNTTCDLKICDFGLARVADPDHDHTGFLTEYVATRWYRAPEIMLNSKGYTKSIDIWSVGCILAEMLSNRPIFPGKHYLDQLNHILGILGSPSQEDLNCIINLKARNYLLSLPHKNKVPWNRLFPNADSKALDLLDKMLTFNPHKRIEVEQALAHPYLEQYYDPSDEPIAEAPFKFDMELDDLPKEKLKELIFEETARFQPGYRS

N[C@H](CSC(=S)NCc1ccccc1)C(=O)O
Not Active: IC50 [1] | Ki [1] | IC50 [2] | Ki [2] | IC50 [3] | IC50 [4] | IC50 (Nitric oxide synthase 1) | IC50 [5] | IC50 [6] | Ki [6] | IC50 [7] | Ki [7] | IC50 [8] | IC50 [9] | IC50 (Melanocortin receptor 3)

CC(=O)N[C@@H]1[C@H](Oc2c3cc4cc2Oc2ccc(cc2Cl)[C@@H](O[C@@H]2O[C@@H](CO)[C@@H](O)[C@H](O)[C@@H]2NC(C)=O)[C@@H]2NC(=O)[C@H](NC(=O)[C@@H]4NC(=O)[C@H]4NC(=O)[C@@H](Cc5ccc(c(Cl)c5)O3)NC(=O)[C@H](N)c3ccc(O)c(c3)Oc3cc(O)cc4c3)c3ccc(O)c(c3)-c3c(O[C@H]4O[C@H](CO)[C@@H](O)[C@@H](O)[C@@H]4O)cc(O)cc3[C@@H](C(=O)O)NC2=O)O[C@@H](CO)[C@@H](O)[C@@H]1O
Not Active: IC50 [1] | Ki [1] | IC50 [2] | Ki [2] | IC50 [3] | IC50 [4] | IC50 (Nitric oxide synthase 1) | IC50 [5] | IC50 [6] | Ki [6] | IC50 [7] | Ki [7] | IC50 [8] | IC50 [9] | IC50 (Melanocortin receptor 3)

CC(=O)N1CCN(c2ccc(OCC3COC(Cn4ccnc4)(c4ccc(Cl)cc4Cl)O3)cc2)CC1 (stereo not given) [KETOCONAZOLE]
Not Active: IC50 [1] | Ki [1] | IC50 [2] | Ki [2] | IC50 [3] | IC50 [4] | IC50 (Nitric oxide synthase 1) | IC50 [5] | IC50 [6] | Ki [6] | IC50 [7] | Ki [7] | IC50 [8] | IC50 [9] | IC50 (Melanocortin receptor 3)

COCCOC(=O)C1=C(C)NC(C)=C(C(=O)OC(C)C)C1c1cccc([N+](=O)[O-])c1 (stereo not given) [NIMODIPINE]
Not Active: IC50 [1] | Ki [1] | IC50 [2] | Ki [2] | IC50 [3] | IC50 [4] | IC50 (Nitric oxide synthase 1) | IC50 [5] | IC50 [6] | Ki [6] | IC50 [7] | Ki [7] | IC50 [8] | IC50 [9] | IC50 (Melanocortin receptor 3)

COCCCOc1ccnc(C[S+]([O-])c2nc3ccccc3[nH]2)c1C (stereo not given) [RABEPRAZOLE]
Not Active: IC50 [1] | Ki [1] | IC50 [2] | Ki [2] | IC50 [3] | IC50 [4] | IC50 (Nitric oxide synthase 1) | IC50 [5] | IC50 [6] | Ki [6] | IC50 [7] | Ki [7] | IC50 [8] | IC50 [9] | IC50 (Melanocortin receptor 3)

CNC(=C[N+](=O)[O-])NCCSCc1ccc(CN(C)C)o1 [RANITIDINE]
Not Active: IC50 [1] | Ki [1] | IC50 [2] | Ki [2] | IC50 [3] | IC50 [4] | IC50 (Nitric oxide synthase 1) | IC50 [5] | IC50 [6] | Ki [6] | IC50 [7] | Ki [7] | IC50 [8] | IC50 [9] | IC50 (Melanocortin receptor 3)

CO[C@H]1/C=C/O[C@@]2(C)Oc3c(C)c(O)c4c(c3C2=O)C2=NC3(CCN(CC(C)C)CC3)NC2=C(NC(=O)/C(C)=C\C=C\[C@H](C)[C@H](O)[C@@H](C)[C@@H](O)[C@@H](C)[C@H](OC(C)=O)[C@@H]1C)C4=O [RIFABUTIN]
Not Active: IC50 [1] | Ki [1] | IC50 [2] | Ki [2] | IC50 [3] | IC50 [4] | IC50 (Nitric oxide synthase 1) | IC50 [5] | IC50 [6] | Ki [6] | IC50 [7] | Ki [7] | IC50 [8] | IC50 [9] | IC50 (Melanocortin receptor 3)

CC(C)c1nc(CN(C)C(=O)N[C@H](C(=O)N[C@@H](Cc2ccccc2)C[C@H](O)[C@H](Cc2ccccc2)NC(=O)OCc2cncs2)C(C)C)cs1 [RITONAVIR]
Not Active: IC50 [1] | Ki [1] | IC50 [2] | Ki [2] | IC50 [3] | IC50 [4] | IC50 (Nitric oxide synthase 1) | IC50 [5] | IC50 [6] | Ki [6] | IC50 [7] | Ki [7] | IC50 [8] | IC50 [9] | IC50 (Melanocortin receptor 3)
